# Data reported in US9617258B2, “Pyrrolo[2,3-d]pyrimidinyl, pyrrolo[2,3-b]pyrazinyl and pyrrolo[2,3-d]pyridinyl acrylamides” (Pfizer Inc., priority 2013, dated 2017).
# Test: Stability of JAK3 covalent inhibitors in human whole blood;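 also: parent compound remaining over incubation time quantified by LC-MS/MS as peak area ratio against an internal standard, using pooled K2-EDTA blood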
# Assay type: in vitro ADME
# Conditions: both sexes, whole blood, 37° C., read-out: Human blood stability t1/2
# From the text: Stability of JAK3 Covalent Inhibitors in Rat and Human Whole Blood
# Rat blood was collected from 3 male Sprague-Dawley rats (200-250 g, Charles River Laboratories) and pooled for each study. Human blood was collected from one male and one female healthy subjects at the Occupational Health & Wellness Center at Pfizer, Groton, CT and pooled for each study. Both rat and human blood was collected freshly into K2-EDTA tubes and kept on ice. An aliquot of the blood was transferred to microtubes and pre-warmed for 10 min at 37° C. using a heat block. […] An aliquot of the incubation mixture was removed at designated time points during the course of the incubation, mixed with an aliquot of acetonitrile containing an internal standard, vortexed and centrifuged. The resulting supernatants were removed and subjected to LC-MS/MS analyses to determine parent compound concentrations. Peak area ratios of the parent compound vs the internal standard were used to determine the % of parent compound remaining vs incubation time.
row,SMILES,half-life at 1 μM
1,"C=CC(=O)N1CC[C@@H](Nc2cnc3[nH]cc(C(=O)NC(C)C)c3n2)[C@H](OC)C1 [Example 305, 2-{[(3R,4R)-1-acryloyl-3-methoxypiperidin-4-yl]amino}-N-(propan-2-yl)-5H-pyrrolo[2,3-b]pyrazine-7-carboxamide]",5.95 h
2,"C=CC(=O)N1CCC(Nc2cnc3[nH]cc(-c4ccc(F)nc4)c3n2)CC1 [Example 207, 1-(4-{[7-(6-fluoropyridin-3-yl)-5H-pyrrolo[2,3-b]pyrazin-2-yl]amino}piperidin-1-yl)prop-2-en-1-one]",> 6 h
3,"C=CC(=O)N1CC(Nc2cnc3[nH]ccc3n2)C1 [Example 337, 1-(3-((5H-Pyrrolo[2,3-b]pyrazin-2-yl)amino)azetidin-1-yl)prop-2-en-1-one]",1.35 h
4,"C=CC(=O)N1CCC[C@@H](Nc2ncnc3[nH]cc(-c4ccc(N5CCOCC5)nc4)c23)C1 [Example 36, 1-[(3R)-3-({5-[6-(morpholin-4-yl)pyridin-3-yl]-7H-pyrrolo[2,3-d]pyrimidin-4-yl}amino)piperidin-1-yl]prop-2-en-1-one]",> 6 h
5,"C=CC(=O)N1CCC(Nc2cnc3[nH]cc(-c4ccc(C)nc4)c3n2)CC1 [Example 199, 1-(4-{[7-(6-methylpyridin-3-yl)-5H-pyrrolo[2,3-b]pyrazin-2-yl]amino}piperidin-1-yl)prop-2-en-1-one]",> 6 h
6,"C=CC(=O)N1CCN(c2cnc3[nH]cc(C(=O)NC(C)C)c3n2)C[C@@H]1CC [Example 299, 2-[(3S)-4-acryloyl-3-ethylpiperazin-1-yl]-N-(propan-2-yl)-5H-pyrrolo[2,3-b]pyrazine-7-carboxamide]",3.32 h
7,"C=CC(=O)N1CC[C@@H](C)[C@H](Nc2ncnc3[nH]ccc23)C1 [Example 112, 1-[(3S,4R)-4-Methyl-3-(7H-pyrrolo[2,3-d]pyrimidin-4-ylamino)piperidin-1-yl]prop-2-en-1-one]",2.37 h
8,"C=CC(=O)N1C[C@H](Nc2ncnc3[nH]ccc23)CC[C@@H]1CO (single isomer, unassigned) [Example 7]",> 5.56 h
9,"C=CC(=O)N1C[C@H](O)C[C@@H](Nc2ncnc3[nH]ccc23)C1 [Example 60, 1-((3R,5R)-3-((7H-Pyrrolo[2,3-d]pyrimidin-4-yl)amino)-5-hydroxypiperidin-1-yl)prop-2-en-1-one]",> 6 h
10,"C=CC(=O)N1C[C@H](C#N)C[C@@H](Nc2ncnc3[nH]ccc23)C1 [Example 6, (3R,5R)-5-((7H-pyrrolo[2,3-d]pyrimidin-4-yl)amino)-1-acryloylpiperidine-3-carbonitrile]",4.22 h
11,C=CC(=O)N1CCC(Nc2cnc3[nH]cc(C(=O)NC(C)(C)C)c3n2)C[C@@H]1C (mixture of isomers) [Example 340],> 6 h
12,"C=CC(=O)N1CCC(Nc2cnc3[nH]cc(-c4ccnc(C)c4)c3n2)CC1 [Example 201, 1-(4-{[7-(2-methylpyridin-4-yl)-5H-pyrrolo[2,3-b]pyrazin-2-yl]amino}piperidin-1-yl)prop-2-en-1-one]",> 6 h
13,"C=CC(=O)N1CC[C@]2(C)CCN(c3ncnc4[nH]ccc34)[C@@H]2C1 [Example 59, 1-((3aS,7aS)-3a-Methyl-1-(7H-pyrrolo[2,3-d]pyrimidin-4-yl)hexahydro-1H-pyrrolo[2,3-c]pyridin-6(2H)-yl)prop-2-en-1-one]",3.07 h
14,"C=CC(=O)N1C[C@H](Nc2ncnc3[nH]cc(Cl)c23)CC[C@@H]1C [Example 18, 1-((2S,5R)-5-((5-Chloro-7H-pyrrolo[2,3-d]pyrimidin-4-yl)amino)-2-methylpiperidin-1-yl)prop-2-en-1-one]",> 5.31 h
15,"C=CC(=O)N1CCC[C@@H](Nc2nc(Nc3cccnc3)nc3[nH]ccc23)C1 [Example 63, 1-[(3R)-3-{[2-(Pyridin-3-ylamino)-7H-pyrrolo[2,3-d]pyrimidin-4-yl]amino}piperidin-1-yl]prop-2-en-1-one]",> 6 h
16,"C=CC(=O)N1CCC[C@@H](Nc2ncnc3[nH]ccc23)C1 [Example 12, (R)-1-(3-((7H-Pyrrolo[2,3-d]pyrimidin-4-yl)amino)piperidin-1-yl)prop-2-en-1-one]",> 5.53 h
17,"C=CC(=O)N1CCC[C@H]1CNc1cnc2[nH]cc(C(=O)NC(C)C)c2n1 [Example 177, 2-({[(2S)-1-acryloylpyrrolidin-2-yl]methyl}amino)-N-(propan-2-yl)-5H-pyrrolo[2,3-b]pyrazine-7-carboxamide]",> 5.35 h
18,"C=CC(=O)N1CCC[C@@H](Nc2ncnc3[nH]cc(C#N)c23)C1 [Example 45, 4-{[(3R)-1-acryloylpiperidin-3-yl]amino}-7H-pyrrolo[2,3-d]pyrimidine-5-carbonitrile]",> 6 h
19,"C=CC(=O)N1C[C@@H]2C(Nc3cnc4[nH]cc(C(=O)NC(C)C)c4n3)[C@@H]2C1 (stereo partly drawn) [Example 189, 2-{[(1R,5S,6s)-3-acryloyl-3-azabicyclo[3.1.0]hex-6-yl]amino}-N-(propan-2-yl)-5H-pyrrolo[2,3-b]pyrazine-7-carboxamide]",> 6 h
20,"C=CC(=O)N1C[C@H](Nc2ncnc3[nH]ccc23)CC[C@@H]1CC (single isomer, unassigned) [Example 9]",> 6 h
21,"C=CC(=O)N1C[C@@H](O)C[C@@H](Nc2ncnc3[nH]cc(Cl)c23)C1 [Example 162, 1-{(3R,5S)-3-[(5-Chloro-7H-pyrrolo[2,3-d]pyrimidin-4-yl)amino]-5-hydroxypiperidin-1-yl}prop-2-en-1-one]",> 6 h
22,"C=CC(=O)N1CCC(Nc2cnc3[nH]cc(C(=O)NC4CCCCC4)c3n2)CC1 [Example 278, 2-[(1-acryloylpiperidin-4-yl)amino]-N-cyclohexyl-5H-pyrrolo[2,3-b]pyrazine-7-carboxamide]",3.93 h
23,"C=C(C(=O)N1CC[C@@H]2CCN(c3ncnc4[nH]ccc34)[C@@H]2C1)C(F)(F)F [Example 41, 1-((3aS,7aS)-1-(7H-Pyrrolo[2,3-d]pyrimidin-4-yl)hexahydro-1H-pyrrolo[2,3-c]pyridin-6(2H)-yl)-2-(trifluoromethyl)prop-2-en-1-one]",0.0467 h

# Continued, values first:
row,half-life at 1 μM,SMILES
1,> 6 h,"C=CC(=O)N1CCC(Nc2cnc3[nH]cc(C(=O)NCC(C)CC(F)(F)F)c3n2)CC1 (stereo not shown) [Example 253, 2-[(1-acryloylpiperidin-4-yl)amino]-N-(4,4,4-trifluoro-2-methylbutyl)-5H-pyrrolo[2,3-b]pyrazine-7-carboxamide]"
2,2.28 h,"C=CC(=O)N1CCC(Nc2cnc3[nH]cc(C(=O)NCC(C)(C)C)c3n2)CC1 [Example 271, 2-[(1-acryloylpiperidin-4-yl)amino]-N-(2,2-dimethylpropyl)-5H-pyrrolo[2,3-b]pyrazine-7-carboxamide]"
3,3.73 h,"C=CC(=O)N1CCC(Nc2cnc3[nH]cc(C(=O)N[C@@H](C)CCC)c3n2)CC1 [Example 267, 2-[(1-acryloylpiperidin-4-yl)amino]-N-[(2S)-pentan-2-yl]-5H-pyrrolo[2,3-b]pyrazine-7-carboxamide]"
4,> 6 h,"C=CC(=O)N1CC[C@@H](CNc2cnc3[nH]cc(C(=O)NC(C)C)c3n2)C1 [Example 191, 2-({[(3S)-1-acryloylpyrrolidin-3-yl]methyl}amino)-(N-propan-2-yl)-5H-pyrrolo[2,3-b]pyrazine-7-carboxamide]"
5,4.33 h,"C=CC(=O)N1CCC(Nc2cnc3[nH]cc(C(=O)NCC4CC(F)(F)C4)c3n2)CC1 [Example 238, 2-[(1-acryloylpiperidin-4-yl)amino]-N-[(3,3-difluorocyclobutyl)methyl]-5H-pyrrolo[2,3-b]pyrazine-7-carboxamide]"
6,3.35 h,"C=CC(=O)N1CCC(Nc2cnc3[nH]cc(C(=O)N[C@@H]4CCC[C@@H]4F)c3n2)CC1 [Example 251, 2-[(1-acryloylpiperidin-4-yl)amino]-N-[(1R,2S)-2-fluorocyclopentyl]-5H-pyrrolo[2,3-b]pyrazine-7-carboxamide]"
7,> 6 h,"C=CC(=O)N1CCC(Nc2cnc3[nH]cc(C(=O)NCCC(F)(F)F)c3n2)CC1 [Example 246, 2-[(1-acryloylpiperidin-4-yl)amino]-N-(3,3,3-trifluoropropyl)-5H-pyrrolo[2,3-b]pyrazine-7-carboxamide]"
8,> 6 h,"C=CC(=O)N1CC[C@H](Nc2cnc3[nH]cc(C(=O)NC(C)C)c3n2)C1 [Example 171, 2-{[(3S)-1-acryloylpyrrolidin-3-yl]amino}-N-(propan-2-yl)-5H -pyrrolo[2,3-b]pyrazine-7-carboxamide]"
9,3.87 h,"C=CC(=O)N1CCC(Nc2cnc3[nH]cc(C(=O)NCC4CCCC4)c3n2)CC1 [Example 270, 2-[(1-acryloylpiperidin-4-yl)amino]-N-(cyclopentylmethyl)-5H-pyrrolo[2,3-b]pyrazine-7-carboxamide]"
10,> 6 h,"C=CC(=O)N1CCC(Nc2cnc3[nH]cc(C(=O)N[C@@H](C)COC)c3n2)CC1 [Example 277, 2-[(1-acryloylpiperidin-4-yl)amino]-N-[(2S)-1-methoxypropan-2-yl]-5H-pyrrolo[2,3-b]pyrazine-7-carboxamide]"
11,3.17 h,"C=CC(=O)N1CC[C@@H](Nc2cnc3[nH]cc(C(=O)NC(C)C)c3n2)[C@@H](F)C1 [Example 320, 2-{[(3S,4R)-1-acryloyl-3-fluoropiperidin-4-yl]amino}-N-(propan-2-yl)-5H-pyrrolo[2,3-b]pyrazine-7-carboxamide]"
12,3.62 h,"C=CC(=O)N1CCC(Nc2cnc3[nH]cc(C(=O)NCC(C)C)c3n2)CC1 [Example 272, 2-[(1-acryloylpiperidin-4-yl)amino]-N-(2-methylpropyl)-5H-pyrrolo[2,3-b]pyrazine-7-carboxamide]"
13,3.27 h,"C=CC(=O)N1CC[C@@H](Nc2cnc3[nH]cc(C(=O)NC(C)C)c3n2)[C@H](F)C1 [Example 291, 2-{[(3R,4R)-1-acryloyl-3-fluoropiperidin-4-yl]amino}-N-(propan-2-yl)-5H-pyrrolo[2,3-b]pyrazine-7-carboxamide]"
14,> 5.17 h,"C=CC(=O)N1CCC(Nc2cnc3[nH]cc(C(=O)NC[C@H](C)CC(F)(F)F)c3n2)CC1 [Example 241, 2-[(1-acryloylpiperidin-4-yl)amino]-N-[(2R)-4,4,4-trifluoro-2-methylbutyl]-5H-pyrrolo[2,3-b]pyrazine-7-carboxamide]"
